Reference: ChEMBL document CHEMBL4261509, “Insight into the complete substrate-binding pocket of ThiT by chemical and genetic mutations” (Medchemcomm, 2017)

Experiments:
[1] = target: T1, Thiamine transporter ThiT (Lactococcus lactis subsp. cremoris (strain MG1363), UniProt A2RI47); test: Binding affinity to wild-type Lactococcus lactis MG1363 N-terminal His8-tagged ThiT expressed in Lactococcus lactis NZ9000 incubated for 10 secs measured over 15 secs by fluorescence spectrophotometric method
T1 sequence (A2RI47 whole entry): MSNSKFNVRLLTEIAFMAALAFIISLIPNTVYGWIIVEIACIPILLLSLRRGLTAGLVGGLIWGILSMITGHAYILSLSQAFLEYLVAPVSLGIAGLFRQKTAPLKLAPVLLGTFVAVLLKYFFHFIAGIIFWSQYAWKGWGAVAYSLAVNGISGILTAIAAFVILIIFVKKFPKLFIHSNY

[2] = target: T1, Thiamine transporter ThiT; test: Binding affinity to wild-type Lactococcus lactis MG1363 N-terminal His8-tagged ThiT expressed in Lactococcus lactis NZ9000 by isothermal calorimetric titration method
[3] = target: Thiamine transporter ThiT (Lactococcus lactis subsp. cremoris (strain MG1363), UniProt A2RI47, E84Q); test: Binding affinity to Lactococcus lactis MG1363 N-terminal His8-tagged ThiT Glu84Gln mutant expressed in Lactococcus lactis NZ9000 by isothermal calorimetric titration method
Sequence of Thiamine transporter ThiT (Lactococcus lactis subsp. cremoris (strain MG1363), UniProt A2RI47, E84Q) (A2RI47 whole entry E84Q): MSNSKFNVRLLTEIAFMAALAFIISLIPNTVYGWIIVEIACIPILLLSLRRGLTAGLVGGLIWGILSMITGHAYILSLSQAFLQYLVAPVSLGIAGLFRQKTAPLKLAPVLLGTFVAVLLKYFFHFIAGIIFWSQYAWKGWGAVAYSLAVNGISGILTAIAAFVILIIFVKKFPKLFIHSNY

[4] = target: Thiamine transporter ThiT (Lactococcus lactis subsp. cremoris (strain MG1363), UniProt A2RI47, H125N); test: Binding affinity to Lactococcus lactis MG1363 N-terminal His8-tagged ThiT His125Asn mutant expressed in Lactococcus lactis NZ9000 by isothermal calorimetric titration method
Sequence of Thiamine transporter ThiT (Lactococcus lactis subsp. cremoris (strain MG1363), UniProt A2RI47, H125N) (A2RI47 whole entry H125N): as the sequence (A2RI47 whole entry E84Q) above, with Q84E, H125N counted along it

[5] = target: Thiamine transporter ThiT (Lactococcus lactis subsp. cremoris (strain MG1363), UniProt A2RI47, E84D); test: Binding affinity to Lactococcus lactis MG1363 N-terminal His8-tagged ThiT Glu84Asp mutant expressed in Lactococcus lactis NZ9000 by isothermal calorimetric titration method
Sequence of Thiamine transporter ThiT (Lactococcus lactis subsp. cremoris (strain MG1363), UniProt A2RI47, E84D) (A2RI47 whole entry E84D): as the sequence (A2RI47 whole entry E84Q) above, with Q84D counted along it

[6] = target: Thiamine transporter ThiT (Lactococcus lactis subsp. cremoris (strain MG1363), UniProt A2RI47, E84A); test: Binding affinity to Lactococcus lactis MG1363 N-terminal His8-tagged ThiT Glu84Ala mutant expressed in Lactococcus lactis NZ9000 by isothermal calorimetric titration method
Sequence of Thiamine transporter ThiT (Lactococcus lactis subsp. cremoris (strain MG1363), UniProt A2RI47, E84A) (A2RI47 whole entry E84A): as the sequence (A2RI47 whole entry E84Q) above, with Q84A counted along it

[7] = target: Thiamine transporter ThiT (Lactococcus lactis subsp. cremoris (strain MG1363), UniProt A2RI47, W34A); test: Binding affinity to Lactococcus lactis MG1363 N-terminal His8-tagged ThiT Trp34Ala mutant expressed in Lactococcus lactis NZ9000 incubated for 5 secs measured over 20 secs by fluorescence spectrophotometric method
Sequence of Thiamine transporter ThiT (Lactococcus lactis subsp. cremoris (strain MG1363), UniProt A2RI47, W34A) (A2RI47 whole entry W34A): as the sequence (A2RI47 whole entry E84Q) above, with W34A, Q84E counted along it

[8] = target: Thiamine transporter ThiT (Lactococcus lactis subsp. cremoris (strain MG1363), UniProt A2RI47, H125A); test: Binding affinity to Lactococcus lactis MG1363 N-terminal His8-tagged ThiT His125Ala mutant expressed in Lactococcus lactis NZ9000 by isothermal calorimetric titration method
Sequence of Thiamine transporter ThiT (Lactococcus lactis subsp. cremoris (strain MG1363), UniProt A2RI47, H125A) (A2RI47 whole entry H125A): as the sequence (A2RI47 whole entry E84Q) above, with Q84E, H125A counted along it

Row | SMILES | Kd [1] | further results
1 | Cc1ncc(C[n+]2cccc(CCO)c2C)c(N)n1 | 0.18 nM | 
2 | Cc1ncc(Cn2cc(CCO)nn2)c(N)n1 |  | Kd [2]: 28.6 µM
3 | Cc1ncc(Cc2cccc(CCO)c2)c(N)n1 | 266 nM | 
4 | Cc1ncc(Cc2csc(CCS[C@@H]3O[C@H](CO)[C@@H](O)[C@H](O)[C@H]3O)c2C)c(N)n1 | 183 nM | 
5 | Cc1ncc(Cc2csc(COCc3ccccc3)c2C)c(N)n1 | 40.3 nM | 
6 | Cc1ncc(Cc2cc(CO)cc(C(F)(F)F)c2)c(N)n1 |  | Kd [2]: 2.3 µM
7 | Cc1ncc(Cc2csc(CNCC(c3ccccc3)c3ccccc3)c2C)c(N)n1 | 168 nM | 
8 | Cc1ncc(Cc2csc(COP(=O)(O)OP(=O)(O)O)c2C)c(N)n1 | 209 nM | 
9 | Cc1ncc(Cc2csc(CNCc3ccccn3)c2C)c(N)n1 | 96.7 nM | 
10 | Cc1ncc(Cc2csc(CCOC(=O)c3c[nH]c4ccccc34)c2C)c(N)n1 | 20.1 nM | 
11 | Cc1ncc(Cc2cccc(CO)c2)c(N)n1 | 528 nM | 
12 | Cc1ncc(Cc2csc(CNCC34CC5CC(CC(C5)C3)C4)c2C)c(N)n1 |  | Kd [2]: 49.8 µM
13 | Cc1cc(CO)cc(Cc2cnc(C)nc2N)c1 |  | Kd [2]: 1.99 µM
14 | Cc1ncc(C[n+]2csc(CCO[P@](=O)(O)OP(=O)(O)O)c2C)c(N)n1 [COCARBOXYLASE] | 1.6 nM | 
15 | Cc1ncc(C[n+]2csc(CCO)c2C)c(N)n1 [THIAMINE ION] | 0.122 nM | Kd [3]: 13.6 µM; Kd [4]: 13.6 nM; Kd [5]: 2.21 nM; Kd [6]: 3.65 µM; Kd [7]: 0.35 nM; Kd [8]: 14.9 nM
